The subject of assay [1] is storage potatoes. Briefly: Field trial: sprout suppression in storage potatoes, composition applied on a conveyor belt. It counts as in vivo, Solanum tuberosum. On the procedure: The efficacy of sprout inhibitor for sprout suppression in storage potatoes was evaluated by applying the composition of present invention on potatoes on a conveyor belt. The treatment application for trial is at crop storage majority treatment 1) Beginning of sprouting: sprouts visible (<1 mm) and, treatment 2) at end of dormancy (sprouts 2-3 mm). After completion of the test, the potatoes were evaluated on sprouting reduction efficiency. No phytotoxicity was observed.

Assay [2] concerns potatoes of the variety Fontane and Innovator. As to the kind of experiment: Field trials in Belgium 2018/2019: anti-sprout spray treatment of stored potatoes. Format: in vivo, Solanum tuberosum. Further details: Tuber sprate 126 da-a / Tuber sprate 182 da-a: scale not given here; Sprout weight after 55 DA / Sprout LENMAX after 55 DA / Sprout weight 55 DA / Sprout weight 116 DA / Sprout Lenmax 55 DA / Sprout Lenmax 116 DA / Sprout lenmax 126 DA-A / Sprout lenmax 182 DA-A / Sprout weight 126 DA / Sprout weight 182 DA: unit not given here. The settings on record: for Sprout LENMAX after 55 DA: Length maximal; for Sprout Lenmax 55 DA / Sprout weight 55 DA / Tuber sprout % 55 DA / Sprout Lenmax 116 DA / Sprout weight 116 DA / Tuber sprout % 116 DA: Table 4; for Sprout lenmax 126 DA-A / Sprout weight 126 DA / Tuber sprouted (%) 126 DA / Tuber sprate 126 da-a / Sprout lenmax 182 DA-A / Sprout weight 182 DA / Tuber sprouted % 182 DA / Tuber sprate 182 da-a: Table 5. How it is done: Field trials were conducted in Belgium, during 2018 and 2019, in the potato crop. The potatoes of the variety Fontane and Innovator was used for anti-sprout treatment (Variety for processing) came up directly from the field (Harvested on Oct. 5, 2018 and Sep. 19, 2018).
The trial was set up in randomized complete block with single control randomized in each block under commercial storage practice. Potatoes treated 3 days after lifting and skin maturity was good. For application of formulation (carrier: 200 ml water for one treatment) container with rack and spray stick was used.
The first application (A) was carried out Potatoes treated 3 days after lifting. The following applications were carried out at four weeks' interval for each treatment.
(A): right after harvest, before putting into storage.
Storage conditions: The trials are stored in shed at temperature 5-18° C. and all plots of a trial should be stored in the same place.

Setting [3] is: Treatment (1): Beginning of sprouting, rate 60 ml/1000 kg.
Where [4] appears, read: Treatment (2): At end of dormancy, rate not given.
The mark [5] stands for this setting: Treatment (1): Beginning of sprouting, rate 400 ml/1000 kg.
Setting [6] is: Treatment (1): Beginning of sprouting, rate 195 ml/1000 kg.
[7] abbreviates: Treatment (1): Beginning of sprouting, rate 300 ml/1000 kg.

SMILES strings stand for the structures. Where “and” joins values, the source holds several entries; their conditions need not be identical. Identical values can stand only once.

As for `Cc1ccc(C)c2ccccc12` [1,4-Dimethylnaphthalene], in assay [1] (setting [3]), the “Sprout No.” value is reported as 15.7 and the “Sprouted (%)” value was found to be 42.80%. For the same compound, in assay [1] (setting [4]), the “Sprout Number” value was found to be 34.3 and the “Sprouted (%)” value was determined as 94.59%.
`O=C(O)COc1ccc(Cl)cc1Cl` [2,4-D]: in assay [1] (setting [5]), the “Sprout No.” value was 12.3 and the “Sprouted (%)” value came to 31.14%. Besides, in assay [1] (setting [4]), the “Sprout Number” value came out at 38.7 and the “Sprouted (%)” value is 99.21%.
For the compound `CCCCCCC=CC(C)=O` [3-Decen-2-One], in assay [1] (setting [6]), the “Sprout No.” value is on record as 9.0 and the “Sprouted (%)” value came out at 24.75%. In assay [1] (setting [4]), the “Sprout Number” value stood at 32.7 and the “Sprouted (%)” value turned out to be 100.0%.
Take `C=C(C)C1CC=C(C)C(=O)C1` (stereo not drawn) [Carvone]: in assay [1] (setting [7]), the “Sprout No.” value was 12.3 and the “Sprouted (%)” value stood at 32.02%. Further, in assay [1] (setting [4]), the “Sprout Number” value is listed as 34.0 and the “Sprouted (%)” value is listed as 96.02%.
Consider `COCc1cnc(C2=NC(C)(C(C)C)C(=O)N2)c(C(=O)O)c1` (stereo not drawn) [Imazamox, 5-(methoxymethyl)-2-(4-methyl-5-oxo-4-propan-2-yl-1H-imidazol-2-yl)pyridine-3-carboxylic acid], for which, in assay [1] (setting [5]), the “Sprout No.” value was determined as 9.7 and the “Sprouted (%)” value amounted to 24.77%. Besides, in assay [1] (setting [4]), the “Sprout Number” value is listed as 16.7 and the “Sprouted (%)” value came out at 42.54%. In assay [2] (rate 12 g ai/1000 kg), the “Sprout weight after 55 DA” value came out at 6.89, the “Tuber SPROUTED (%) after 55 DA” value was found to be 78.67% and the “Sprout LENMAX after 55 DA” value is given as 1.5. Besides, in assay [2] (rate 18 g ai/1000 kg), the “Sprout weight after 55 DA” value was found to be 4.09, the “Tuber SPROUTED (%) after 55 DA” value was determined as 73.21% and the “Sprout LENMAX after 55 DA” value worked out at 1.7. Besides, in assay [2] (rate 24 g ai/1000 kg), the “Sprout weight after 55 DA” value turned out to be 4.2, the “Tuber SPROUTED (%) after 55 DA” value turned out to be 75.26% and the “Sprout LENMAX after 55 DA” value came to 1.2. Further, in assay [2] (rate 30 g ai/1000 kg), the “Sprout weight after 55 DA” value is given as 4.13, the “Tuber SPROUTED (%) after 55 DA” value was 71.68% and the “Sprout LENMAX after 55 DA” value is recorded as 1.7. In addition, in assay [2] (rate 100 ml/1000 kg), the “Sprout Lenmax 55 DA” value amounted to 1.5, the “Sprout weight 55 DA” value was 6.89, the “Tuber sprout % 55 DA” value was found to be 78.67% and the “Sprout Lenmax 116 DA” value worked out at 3.3. Besides, in assay [2] (rate 100 ml/1000 kg), the “Sprout weight 116 DA” value came to 12.31; the “Tuber sprout % 116 DA” value came to 85.86%; the “Sprout lenmax 126 DA-A” value was 2.8 and 5.2; the “Tuber sprate 126 da-a” value was 9.5 and 8.83. Also, in assay [2] (rate 100 ml/1000 kg), the “Tuber sprouted % 182 DA” value is 83.33% and 86.19%; the “Tuber sprate 182 da-a” value was 9.67 and 8.83. Also, in assay [2] (rate 150 ml/1000 kg), the “Sprout Lenmax 55 DA” value came out at 1.7, the “Sprout weight 55 DA” value is reported as 4.09, the “Tuber sprout % 55 DA” value came to 73.21% and the “Sprout Lenmax 116 DA” value is 2.8. Moreover, in assay [2] (rate 150 ml/1000 kg), the “Sprout weight 116 DA” value was found to be 7.92; the “Tuber sprout % 116 DA” value was 79.15%; the “Sprout lenmax 126 DA-A” value is given as 1.7; the “Sprout weight 126 DA” value is 2.23 and 1.83. Further, in assay [2] (rate 150 ml/1000 kg), the “Tuber sprouted (%) 126 DA” value was 81.43% and 72.58%; the “Tuber sprate 126 da-a” value is 9.5 and 9.58; the “Sprout lenmax 182 DA-A” value was 1 and 0.7; the “Sprout weight 182 DA” value was 3.77 and 3.13. In assay [2] (rate 150 ml/1000 kg), the “Tuber sprouted % 182 DA” value was 73.1% and 75.45%; the “Tuber sprate 182 da-a” value worked out at 9.75. Also, in assay [2] (rate 200 ml/1000 kg), the “Sprout Lenmax 55 DA” value was 1.2, the “Sprout weight 55 DA” value was 4.2, the “Tuber sprout % 55 DA” value stood at 75.26% and the “Sprout Lenmax 116 DA” value was determined as 2. Moreover, in assay [2] (rate 200 ml/1000 kg), the “Sprout weight 116 DA” value was found to be 7.07; the “Tuber sprout % 116 DA” value came out at 81.59%; the “Sprout lenmax 126 DA-A” value was 2.2 and 2.1; the “Sprout weight 126 DA” value is 1.93 and 1.75. In addition, in assay [2] (rate 200 ml/1000 kg), the “Tuber sprouted (%) 126 DA” value is 73.58% and 75.44%; the “Tuber sprate 126 da-a” value was 9.67 and 9.75; the “Sprout lenmax 182 DA-A” value was 1.7 and 1; the “Sprout weight 182 DA” value was 5.77 and 3.3. In addition, in assay [2] (rate 200 ml/1000 kg), the “Tuber sprouted % 182 DA” value was 77.93% and 65.99%; the “Tuber sprate 182 da-a” value is 9.58 and 9.67. Also, in assay [2] (rate 250 ml/1000 kg), the “Sprout Lenmax 55 DA” value was 1.7, the “Sprout weight 55 DA” value is given as 4.13, the “Tuber sprout % 55 DA” value is reported as 71.68% and the “Sprout Lenmax 116 DA” value was found to be 1.3. Besides, in assay [2] (rate 250 ml/1000 kg), the “Sprout weight 116 DA” value was 4.92, the “Tuber sprout % 116 DA” value is reported as 71.93%, the “Sprout lenmax 126 DA-A” value is recorded as 0.9 and the “Sprout weight 126 DA” value amounted to 1.65. In assay [2] (rate 250 ml/1000 kg), the “Tuber sprouted (%) 126 DA” value is reported as 75.06%, the “Tuber sprate 126 da-a” value is given as 9.75, the “Sprout lenmax 182 DA-A” value stood at 1.2 and the “Sprout weight 182 DA” value was 3.53. Moreover, in assay [2] (rate 250 ml/1000 kg), the “Tuber sprouted % 182 DA” value was 74.98% and the “Tuber sprate 182 da-a” value came to 9.67. Moreover, in assay [2] (rate 50 ml/1000 kg), the “Sprout lenmax 126 DA-A” value turned out to be 3.7, the “Sprout weight 126 DA” value worked out at 6.54, the “Tuber sprouted (%) 126 DA” value is reported as 88.47% and the “Tuber sprate 126 da-a” value stood at 8.83. In addition, in assay [2] (rate 50 ml/1000 kg), the “Sprout lenmax 182 DA-A” value is on record as 4.2, the “Sprout weight 182 DA” value was determined as 23, the “Tuber sprouted % 182 DA” value turned out to be 88.1% and the “Tuber sprate 182 da-a” value came to 8.67. Besides, the “sprout control over time (in words)” value in assay [2] (as compared to other treatments such as maleic hydrazide, CIPC) is listed as “effective sprout control over an extended period of time”. In addition, in assay [2] (comment on Table 3), the “inhibition of sprouts (in words)” value is reported as “effective for inhibition of sprouts”. Also, the “sprout weight (in words)” value in assay [2] (comment on Table 3, as compared to maleic hydrazide) is given as “an advantage was found”. Moreover, the tubers germinated in assay [2] (comment on Table 5, dose rate 250 ml/1000 kg) was determined as 74%.

For the origin of these results see patent publication US20220202012A1, “SPROUT INHIBITOR FOR POTATO AND METHOD OF USE THEREOF” (UPL Limited, priority 2019, published 2022).
